{"source": "ChEMBL document CHEMBL5537158", "about": "“Polymyxins with Potent Antibacterial Activity against Colistin-Resistant Pathogens: Fine-Tuning Hydrophobicity with Unnatural Amino Acids” (J Med Chem, 2024)", "key": {"[1]": {"assay": "Hemolytic activity in human RBC at 400 ug/ml after 1 hr", "format": "toxicity, cell-based, Erythrocyte", "details": "red blood cells (erythrocytes), at 400 µg/mL, read-out: Activity"}, "Acinetobacter baumannii [2]": {"tested_on": "Acinetobacter baumannii", "assay": "Antimicrobial activity against colistin resistant Acinetobacter baumannii ATCC 3658/17 assessed as bacterial growth inhibition incubated for 20 hrs by broth microdilution method", "format": "functional"}, "Escherichia coli": {"tested_on": "Escherichia coli", "assay": "Antibacterial activity against Escherichia coli ATCC 25922 assessed as bacterial growth inhibition incubated for 20 hrs by broth microdilution method", "format": "functional"}, "Acinetobacter baumannii [3]": {"tested_on": "Acinetobacter baumannii", "assay": "Antimicrobial activity against Acinetobacter baumannii ATCC 19606 assessed as bacterial growth inhibition incubated for 20 hrs by broth microdilution method", "format": "functional"}, "Pseudomonas aeruginosa": {"tested_on": "Pseudomonas aeruginosa", "assay": "Antimicrobial activity against Pseudomonas aeruginosa PAO1 assessed as bacterial growth inhibition incubated for 20 hrs by broth microdilution method", "format": "functional"}}, "note": "Positions of bridges follow the written chain, without caps; N, C: chain ends. Non-standard residues stand in square brackets, D forms with d. Residues, ends and D or L forms follow the SMILES beside them. *: point of attachment. dPhe(3,4,5-F3) = N[C@H](Cc1cc(F)c(F)c(F)c1)C(=O)O; Phe(4-CF3) = N[C@@H](Cc1ccc(C(F)(F)F)cc1)C(=O)O; dPhe(F5) = N[C@H](Cc1c(F)c(F)c(F)c(F)c1F)C(=O)O; Benzoyl(4-Ph) = O=C(c1ccc(-c2ccccc2)cc1)*; Phe(4-Br) = N[C@@H](Cc1ccc(Br)cc1)C(=O)O; dPhe(4-Cl) = N[C@H](Cc1ccc(Cl)cc1)C(=O)O; dPhe(2-F) = N[C@H](Cc1ccccc1F)C(=O)O; dAoc(2) = CCCCCC[C@@H](N)C(=O)O; Octanoyl = CCCCCCCC(=O)*; Dab = NCC[C@H](N)C(=O)O"}
{"smiles": "CCCCCCCC(=O)N[C@@H](CCN)C(=O)N[C@H](C(=O)N[C@@H](CCN)C(=O)N[C@H]1CCNC(=O)[C@H]([C@@H](C)O)NC(=O)[C@H](CCN)NC(=O)[C@H](CCN)NC(=O)[C@H](CC(C)C)NC(=O)[C@@H](Cc2ccccc2F)NC(=O)[C@H](CCN)NC1=O)[C@@H](C)O", "note": "(Octanoyl-[Dab]T[Dab][Dab][Dab][dPhe(2-F)]L[Dab][Dab]T; lactam 4-C) [listing 1 of 2 here]", "values": [{"measurement": "hemolysis at 1 h, 400 ug/ml", "setting": "[1]", "result": "< 10", "unit": "%"}]}
{"smiles": "CC[C@H](C)[C@@H]1NC(=O)[C@@H](CC(C)C)NC(=O)[C@H](CCN)NC(=O)[C@@H](NC(=O)[C@@H](CO)NC(=O)[C@@H](NC(=O)[C@H](CCN)NC(=O)c2ccc(-c3ccccc3)cc2)[C@@H](C)O)CCNC(=O)[C@H](CC(C)C)NC(=O)[C@H](CCN)NC(=O)[C@H](CCN)NC1=O", "note": "({Benzoyl(4-Ph)}-[Dab]T[dS][Dab][Dab][dL]I[Dab][Dab]L; lactam 4-C)", "values": [{"measurement": "hemolysis at 1 h, 400 ug/ml", "setting": "[1]", "result": "< 10", "unit": "%"}]}
{"smiles": "CCCCCCCC(=O)N[C@@H](CCN)C(=O)N[C@H](C(=O)N[C@@H](CCN)C(=O)N[C@H]1CCNC(=O)[C@H]([C@@H](C)O)NC(=O)[C@H](CCN)NC(=O)[C@H](CCN)NC(=O)[C@H](CC(C)C)NC(=O)[C@@H](Cc2cc(F)c(F)c(F)c2)NC(=O)[C@H](CCN)NC1=O)[C@@H](C)O", "note": "(Octanoyl-[Dab]T[Dab][Dab][Dab][dPhe(3,4,5-F3)]L[Dab][Dab]T; lactam 4-C)", "values": [{"measurement": "hemolysis at 1 h, 400 ug/ml", "setting": "[1]", "result": "< 10", "unit": "%"}]}
{"smiles": "CCCCCCCC(=O)N[C@@H](CCN)C(=O)N[C@H](C(=O)N[C@@H](CCN)C(=O)N[C@H]1CCNC(=O)[C@H]([C@@H](C)O)NC(=O)[C@H](CCN)NC(=O)[C@H](CCN)NC(=O)[C@H](CCCc2ccccc2)NC(=O)[C@@H](Cc2ccccc2)NC(=O)[C@H](CCN)NC1=O)[C@@H](C)O", "values": [{"measurement": "hemolysis at 1 h, 400 ug/ml", "setting": "[1]", "result": "< 10", "unit": "%"}]}
{"smiles": "CCCCCCCC(=O)N[C@@H](CCN)C(=O)N[C@H](C(=O)N[C@@H](CCN)C(=O)N[C@H]1CCNC(=O)[C@H]([C@@H](C)O)NC(=O)[C@H](CCN)NC(=O)[C@H](CCN)NC(=O)[C@H](CC(C)C)NC(=O)[C@@H](Cc2ccccc2F)NC(=O)[C@H](CCN)NC1=O)[C@@H](C)O", "note": "(Octanoyl-[Dab]T[Dab][Dab][Dab][dPhe(2-F)]L[Dab][Dab]T; lactam 4-C) [listing 2 of 2 here]", "values": [{"measurement": "MIC", "setting": "Acinetobacter baumannii [2]", "result": 0.5, "unit": "mg/L"}, {"measurement": "MIC", "setting": "Escherichia coli", "result": 0.123, "unit": "mg/L"}, {"measurement": "MIC", "setting": "Acinetobacter baumannii [3]", "result": 0.06, "unit": "mg/L"}]}
{"smiles": "CCCCCCCC(=O)N[C@@H](CCN)C(=O)N[C@H](C(=O)N[C@@H](CCN)C(=O)N[C@H]1CCNC(=O)[C@H]([C@@H](C)O)NC(=O)[C@H](CCN)NC(=O)[C@H](CCN)NC(=O)[C@H](CCCCCC)NC(=O)[C@@H](Cc2ccccc2)NC(=O)[C@H](CCN)NC1=O)[C@@H](C)O", "values": [{"measurement": "hemolysis at 1 h, 400 ug/ml", "setting": "[1]", "result": "< 10", "unit": "%"}]}
{"smiles": "CCCCCCCC(=O)N[C@@H](CCN)C(=O)N[C@H](C(=O)N[C@@H](CCN)C(=O)N[C@H]1CCNC(=O)[C@H]([C@@H](C)O)NC(=O)[C@H](CCN)NC(=O)[C@H](CCN)NC(=O)[C@H](Cc2ccc(C(F)(F)F)cc2)NC(=O)[C@@H](CC(C)C)NC(=O)[C@H](CCN)NC1=O)[C@@H](C)O", "note": "(Octanoyl-[Dab]T[Dab][Dab][Dab][dL][Phe(4-CF3)][Dab][Dab]T; lactam 4-C)", "values": [{"measurement": "hemolysis at 1 h, 400 ug/ml", "setting": "[1]", "result": "< 10", "unit": "%"}]}
{"smiles": "CCCCCCCC(=O)N[C@@H](CCN)C(=O)N[C@H](C(=O)N[C@@H](CCN)C(=O)N[C@H]1CCNC(=O)[C@H]([C@@H](C)O)NC(=O)[C@H](CCN)NC(=O)[C@H](CCN)NC(=O)[C@H](CC(C)C)NC(=O)[C@@H](Cc2c(F)c(F)c(F)c(F)c2F)NC(=O)[C@H](CCN)NC1=O)[C@@H](C)O", "note": "(Octanoyl-[Dab]T[Dab][Dab][Dab][dPhe(F5)]L[Dab][Dab]T; lactam 4-C)", "values": [{"measurement": "MIC", "setting": "Acinetobacter baumannii [2]", "result": 0.5, "unit": "mg/L"}, {"measurement": "MIC", "setting": "Escherichia coli", "result": "< 0.125", "unit": "mg/L"}, {"measurement": "MIC", "setting": "Pseudomonas aeruginosa", "result": 0.25, "unit": "mg/L"}, {"measurement": "MIC", "setting": "Acinetobacter baumannii [3]", "result": "< 0.125", "unit": "mg/L"}]}
{"smiles": "CCCCCCCC(=O)N[C@@H](CCN)C(=O)N[C@H](C(=O)N[C@@H](CCN)C(=O)N[C@H]1CCNC(=O)[C@H]([C@@H](C)O)NC(=O)[C@H](CCN)NC(=O)[C@H](CCN)NC(=O)[C@H](Cc2ccc(Br)cc2)NC(=O)[C@@H](CC(C)C)NC(=O)[C@H](CCN)NC1=O)[C@@H](C)O", "note": "(Octanoyl-[Dab]T[Dab][Dab][Dab][dL][Phe(4-Br)][Dab][Dab]T; lactam 4-C)", "values": [{"measurement": "MIC", "setting": "Acinetobacter baumannii [2]", "result": 1, "unit": "mg/L"}, {"measurement": "MIC", "setting": "Pseudomonas aeruginosa", "result": 0.25, "unit": "mg/L"}, {"measurement": "MIC", "setting": "Acinetobacter baumannii [3]", "result": 0.25, "unit": "mg/L"}]}
{"smiles": "CCCCCCCC(=O)N[C@@H](CCN)C(=O)N[C@H](C(=O)N[C@@H](CCN)C(=O)N[C@H]1CCNC(=O)[C@H]([C@@H](C)O)NC(=O)[C@H](CCN)NC(=O)[C@H](CCN)NC(=O)[C@H](Cc2ccccc2)NC(=O)[C@@H](CCCCCC)NC(=O)[C@H](CCN)NC1=O)[C@@H](C)O", "note": "(Octanoyl-[Dab]T[Dab][Dab][Dab][dAoc(2)]F[Dab][Dab]T; lactam 4-C)", "values": [{"measurement": "hemolysis at 1 h, 400 ug/ml", "setting": "[1]", "result": "< 10", "unit": "%"}]}
{"smiles": "CCCCCCCC(=O)N[C@@H](CCN)C(=O)N[C@H](C(=O)N[C@@H](CCN)C(=O)N[C@H]1CCNC(=O)[C@H]([C@@H](C)O)NC(=O)[C@H](CCN)NC(=O)[C@H](CCN)NC(=O)[C@H](CC(C)C)NC(=O)[C@@H](Cc2ccc(Cl)cc2)NC(=O)[C@H](CCN)NC1=O)[C@@H](C)O", "note": "(Octanoyl-[Dab]T[Dab][Dab][Dab][dPhe(4-Cl)]L[Dab][Dab]T; lactam 4-C)", "values": [{"measurement": "hemolysis at 1 h, 400 ug/ml", "setting": "[1]", "result": "< 10", "unit": "%"}]}
